Earlier results on one compound are cited in article PMC6340882, “Targeting protein kinase CK2 and CDK4/6 pathways with a multi-kinase inhibitor ON108110 suppresses pro-survival signaling and growth in mantle cell lymphoma and T-acute lymphoblastic leukemia” (Oncotarget, 2018).

This data set concerns mantle cell lymphoma. Also on record: method as in PMID 22383795. The conditions noted are these: monotherapy for MCL, patients; cited from earlier work.

Regarding `CC(=O)c1c(C)c2cnc(Nc3ccc(N4CCNCC4)cn3)nc2n(C2CCCC2)c1=O` [Palbociclib], the overall response rate is on record as 18%.
